# According to US5120842A, “Silyl ethers of rapamycin” (American Home Products Corporation, priority 1991, dated 1992):
# Like-named read-outs stand apart in the source and are kept apart here.
# Tests used:
# Candida albicans 3669 = test: antifungal plate test procedure; type: cell-based; settings: strain 3669, plate disk test, read-out: MIC to inhibit growth
# Description: (§1) Antifungal activity of a representative compound of this invention was measured against 5 strains of Candida albicans using a plate test procedure for measurement of inhibition. The following represents the typical procedure used. Compound to be tested was placed on sterile dried 1/4" plate disks, and allowed to dry. Agar plates were seeded with fungi and allowed to solidify. The impregnated disks were placed on the seeded Agar surface and incubated for the time required for the particular culture.
# [1] = tested on: Candida albicans ATCC 38246; test: antifungal plate test procedure; type: cell-based; settings: ATCC38246, strain ATCC 38246, plate disk test, read-out: MIC to inhibit growth
# Description: as §1
# [2] = tested on: Candida albicans ATCC 38248; test: antifungal plate test procedure; type: cell-based; settings: ATCC38248, strain ATCC 38248, plate disk test, read-out: MIC to inhibit growth
# Description: as §1
# [3] = tested on: Candida albicans ATCC 10231; test: antifungal plate test procedure; type: cell-based; settings: ATCC10231, strain ATCC 10231, plate disk test, read-out: MIC to inhibit growth
# Description: as §1
# [4] = tested on: Candida albicans ATCC 38247; test: antifungal plate test procedure; type: cell-based; settings: ATCC38247, strain ATCC 38247, plate disk test, read-out: MIC to inhibit growth
# Description: as §1
# [5] = tested on: cells from the thymus of normal BALB/c mice (lymphocyte proliferation); test: comitogen-induced thymocyte proliferation procedure (LAF); type: cell-based; settings: Mus musculus
# Description: Immunosuppressive activity was evaluated in an in vitro standard pharmacological test procedure to measure lymphocyte proliferation (LAF).
# Briefly, cells from the thymus of normal BALB/c mice are cultured for 72 hours with PHA and IL-1 and pulsed with tritiated thymidine during the last six hours. Cells are cultured with and without various concentrations of rapamycin, cyclosporin A, or test compound. Cells are harvested and incorporated radioactivity is determined. Inhibition of lymphoproliferation is assessed as percent change in counts per minute from non-drug treated controls. The results are expressed as an IC50.
# [6] = model for multiple sclerosis; cited from earlier work
# Candida albicans = settings: in vitro and in vivo; cited from earlier work
# [7] = cited from earlier work
# [8] = model for rheumatoid arthritis; cited from earlier work
# IgE-like antibodies = settings: in vivo; cited from earlier work
# [9] = read-out: IC50 (LAF), 72 h culture with PHA and IL-1, tritiated thymidine last six hours, table 1
Structure (SMILES),MIC (Candida albicans 3669) [µg/mL],MIC [1] [µg/mL],MIC [2] [µg/mL],MIC [3] [µg/mL],MIC [4] [µg/mL],"IC50 [5, 9] [nM]",effect in experimental allergic encephalomyelitis model [6],antifungal activity (Candida albicans),antitumor activity ([7]; in combination with picibanil),antitumor activity ([7]; rapamycin alone),effect in adjuvant arthritis model [8],inhibition of formation of IgE-like antibodies (IgE-like antibodies),"IC50 ([5]; read-out: IC50 (LAF), rapamycin-31-acetate and rapamycin evaluated contemporaneously) [nM]","IC50 ([5]; rapamycin-31-acetate and rapamycin evaluated contemporaneously, read-out: IC50 (LAF)) [nM]"
"CO[C@H]1C[C@@H]2CC[C@@H](C)[C@@](O)(O2)C(=O)C(=O)N2CCCC[C@H]2C(=O)O[C@H]([C@H](C)C[C@@H]2CC[C@@H](O[Si](C)(C)C(C)(C)C)[C@H](OC)C2)CC(=O)[C@H](C)/C=C(\C)[C@@H](O)[C@@H](OC)C(=O)[C@H](C)C[C@H](C)/C=C/C=C/C=C/1C [Example 1, Rapamycin 42-O-[(1,1-Dimethylethyl)dimethylsilyl]ether]",> 0.4,> 0.4,> 0.4,0.2,0.2,45.8,,,,,,,,
CO[C@H]1C[C@@H]2CC[C@@H](C)[C@@](O)(O2)C(=O)C(=O)N2CCCC[C@H]2C(=O)O[C@H]([C@H](C)C[C@@H]2CC[C@@H](O)[C@H](OC)C2)CC(=O)[C@H](C)/C=C(\C)[C@@H](O)[C@@H](OC)C(=O)[C@H](C)C[C@H](C)/C=C/C=C/C=C/1C [Rapamycin],0.025,0.025,0.006,0.003,0.003,3.2,effective,"antifungal activity, particularly against Candida albicans, both in vitro and in vivo",shown to have antitumor activity,shown to have antitumor activity,effective,effectively inhibited the formation of IgE-like antibodies,7.8,
"CO[C@H]1C[C@@H]2CC[C@@H](C)[C@@](O)(O2)C(=O)C(=O)N2CCCC[C@H]2C(=O)O[C@H]([C@H](C)C[C@@H]2CC[C@@H](O)[C@H](OC)C2)CC(=O)[C@H](C)/C=C(\C)[C@@H](OC(C)=O)[C@@H](OC)C(=O)[C@H](C)C[C@H](C)/C=C/C=C/C=C/1C [rapamycin-31-acetate, Rapamycin 31-acetate]",,,,,,,,,,,,,,56.5
